The compounds below were run against T1, human 5-HT4(b) receptor (Homo sapiens, UniProt Q13639) (assay: 5-HT4(b) agonist assay (cAMP accumulation)). Details: CHO-K1 cells overexpressing full-length human 5-HT4(b) receptor; cAMP accumulation after 30 minutes at room temperature; 1 μM 5-HT as 100% activity.
T1 construct: overexpressing the full-length human 5-HT4(b) receptor with an N-terminal FLAG tag; FLAG (N); host or cells: CHO-K1
Format: cell-based
Description: One may determine the activity of the compounds of Formula 1 using a variety of methods, including in vitro and in vivo methods. The ability of the example compounds to activate the 5-HT4(b) receptor may be determined using the following assay.
Chinese hamster ovary (CHO-K1) cells overexpressing the full-length human 5-HT4(b) receptor with an N-terminal FLAG tag (Multispan Inc, Hayward, CA) are cultured per the manufacturer's protocol in 1:1 DMEM/F12 (Thermo Fisher, Waltham, MA) with 10% fetal bovine serum (GE Healthcare, Pittsburgh, PA) and 10 μg/mL puromycin (Thermo Fisher, Waltham, MA), and stored in frozen aliquots to be used as assay ready cells. On the day of the assay, cells are removed from frozen storage, washed two times in 1× Kreb's Ringer Buffer (Zenbio, Research Triangle Park, NC), and re-suspended to a concentration of 4×10^6 cells/mL in 1× Kreb's Ringer Buffer. Test compound (50 nL) in 100% DMSO is acoustically dispensed in low volume, white, 384-well polypropylene plates (Corning, Tewksbury, MA), followed by the addition of 4×10^4 cells per well in a total volume of 10 μL. Cells are incubated with test compound for 30 minutes at room temperature in the dark, and cAMP accumulation is measured using the Cisbio HiRange cAMP assay kit (Bedford, MA) per the manufacturer's protocol. Anti-cAMP antibody and d2-cAMP tracer reagents diluted in lysis/detection buffer are incubated in the dark for 1 hour, and results are measured on a Pherastar plate reader (BMG Labtech, Ortenberg, Germany). Data are normalized using 1 μM 5-HT (Sigma Aldrich, St. Louis, MO) as 100% activity, and DMSO alone as 0% activity.
The ability of the example compounds to activate the 5-HT4(b) receptor was evaluated using the assay described in the Biological Activity section. Table 1, below, lists EC50 from the 5-HT4(b) agonist assay for each of the example compounds, where smaller EC50 values represent higher potency.

T1 sequence (Q13639 whole entry): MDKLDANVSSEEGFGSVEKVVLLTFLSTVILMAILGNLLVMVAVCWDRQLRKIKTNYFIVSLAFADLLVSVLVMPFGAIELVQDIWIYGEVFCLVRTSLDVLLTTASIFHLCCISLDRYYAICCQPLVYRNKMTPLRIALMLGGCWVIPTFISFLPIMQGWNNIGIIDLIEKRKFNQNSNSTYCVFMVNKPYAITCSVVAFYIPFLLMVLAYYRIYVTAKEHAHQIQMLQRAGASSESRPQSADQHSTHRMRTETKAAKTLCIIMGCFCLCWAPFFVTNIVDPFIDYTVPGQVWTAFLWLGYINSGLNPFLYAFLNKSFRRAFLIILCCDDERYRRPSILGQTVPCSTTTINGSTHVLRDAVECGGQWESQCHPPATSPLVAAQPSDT

Row | SMILES | EC50 [nM]
1 | Nc1c(Cl)cc(C(=O)NC2CCN(CCCCCC(=O)N[C@@H]3CCCN(CCCCCC(=O)NC[C@H](O)[C@@H](O)[C@H](O)[C@H](O)CO)C3)CC2)c2c1CCO2 [Example 29, 4-amino-5-chloro-N-(1-(6-oxo-6-(((R)-1-(6-oxo-6-(((2S,3R,4R,5R)-2,3,4,5,6-pentahydroxyhexyl)amino)hexyl)piperidin-3-yl)amino)hexyl)piperidin-4-yl)-2,3-dihydrobenzofuran-7-carboxamide] | 4.4
2 | Nc1c(Cl)cc(C(=O)NCC2CCN(CC3CCN(C(=O)CCCCCCCCCCC(=O)NC[C@H](O)[C@@H](O)[C@H](O)[C@H](O)CO)CC3)CC2)c2c1CCO2 [Example 38, 4-amino-5-chloro-N-((1-((1-(12-oxo-12-(((2S,3R,4R,5R)-2,3,4,5,6-pentahydroxyhexyl)amino)dodecanoyl)piperidin-4-yl)methyl)piperidin-4-yl)methyl)-2,3-dihydrobenzofuran-7-carboxamide] | 1.2
3 | COc1cc(N)c(Cl)cc1C(=O)N[C@@H]1CCN(CCCCCC(=O)NCCCCCCCC(=O)N(CCCN(C)C)CCS(=O)(=O)O)C[C@@H]1OC [Example 27, 2-(8-(6-((3S,4R)-4-(4-amino-5-chloro-2-methoxybenzamido)methoxypiperidin-1-yl)hexanamido)-N-(3-(dimethylamino)propyl)octanamido)ethane-1-sulfonic acid] | 30.3
4 | COc1cc(N)c(Cl)cc1C(=O)N[C@@H]1CCN(CCCCCC(=O)N(C)[C@@H]2CCCN(CCCCCC(=O)NC[C@H](O)[C@@H](O)[C@H](O)[C@H](O)CO)C2)C[C@@H]1OC [Example 15, 4-amino-5-chloro-2-methoxy-N-((3S,4R)-3-methoxy-1-(6-(methyl((R)-1-(6-oxo-6-(((2S,3R,4R,5R)-2,3,4,5,6-pentahydroxyhexyl)amino)hexyl)piperidin-3-yl)amino)-6-oxohexyl)piperidin-4-yl)benzamide] | 31
5 | COc1cc(N)c(Cl)cc1C(=O)N[C@@H]1CCN(CCCCCC(=O)N(C)C2CCN(CCCCCC(=O)NC[C@H](O)[C@@H](O)[C@H](O)[C@H](O)CO)CC2)C[C@@H]1OC [Example 11, 4-amino-5-chloro-2-methoxy-N-((3S,4R)-3-methoxy-1-(6-(methyl(1-(6-oxo-6-(((2S,3R,4R,5R)-2,3,4,5,6-pentahydroxyhexyl)amino)hexyl)piperidinyl)amino)-6-oxohexyl)piperidin-4-yl)benzamide] | 14.2
6 | COc1cc(N)c(Cl)cc1C(=O)N[C@@H]1CCN(CCCCCC(=O)NCCCCCCCC(=O)N(CCO)C[C@H](O)[C@@H](O)[C@H](O)[C@H](O)CO)C[C@@H]1OC [Example 22, 4-amino-5-chloro-N-((3 S,4R)-1-(6-((8-((2-hydroxyethyl)((2S,3R,4R,5R)-2,3,4,5,6-pentahydroxyhexyl)amino)-8-oxooctyl)amino)-6-oxohexyl)-3-methoxypiperidin-4-yl)-2-methoxybenzamide] | 19.1
7 | CO[C@H]1CN(CCCCCC(=O)NCCCC(=O)NC[C@H](O)[C@@H](O)[C@H](O)[C@H](O)CO)CC[C@H]1NC(=O)c1cc(Cl)c(N)c2c1OCC2 [Example 46] | 5.9
8 | COc1cc(N)c(Cl)cc1C(=O)N[C@@H]1CCN(CCC(C)CCC(=O)NCCCCCCCC(=O)NC[C@H](O)[C@@H](O)[C@H](O)[C@H](O)CO)C[C@@H]1OC (stereo partly drawn) [Example 20, 4-amino-5-chloro-2-methoxy-N-((3S,4R)-3-methoxy-1-(3-methyl-6-oxo-6-((8-oxo-8-(((2S,3R,4R,5R)-2,3,4,5,6-pentahydroxyhexyl)amino)octyl)amino)hexyl)piperidin-4-yl)benzamide] | 57.6
9 | COc1cc(N)c(Cl)cc1C(=O)N[C@@H]1CCN(CCCCCC(=O)NCC(=O)NC[C@H](O)[C@@H](O)[C@H](O)[C@H](O)CO)C[C@@H]1OC [Example 5, 4-amino-5-chloro-2-methoxy-N-((3S,4R)-3-methoxy-1-(6-oxo-6-((2-oxo-2-(((2S,3R,4R,5R)-2,3,4,5,6-pentahydroxyhexyl)amino)ethyl)amino)hexyl)piperidin-4-yl)benzamide] | 13.2
10 | Nc1c(Cl)cc(C(=O)NCC2CCN(CC3CCN(CCCCCCC(=O)NC[C@H](O)[C@@H](O)[C@H](O)[C@H](O)CO)CC3)CC2)c2c1CCO2 [Example 37, 4-amino-5-chloro-N-((1-((1-(7-oxo-7-(((2S,3R,4R,5R)-2,3,4,5,6-pentahydroxyhexyl)amino)heptyl)piperidin-4-yl)methyl)piperidin-4-yl)methyl)-2,3-dihydrobenzofuran-7-carboxamide] | 2
11 | Nc1c(Cl)cc(C(=O)NCC2CCN(CC3CCN(CCCCCCCCC(=O)NC[C@H](O)[C@@H](O)[C@H](O)[C@H](O)CO)CC3)CC2)c2c1CCO2 [Example 35, 4-amino-5-chloro-N-((1-((1-(9-oxo-9-(((2S,3R,4R,5R)-2,3,4,5,6-pentahydroxyhexyl)amino)nonyl)piperidin-4-yl)methyl)piperidin-4-yl)methyl)-2,3-dihydrobenzofuran-7-carboxamide] | 2.6
12 | COc1cc(N)c(Cl)cc1C(=O)N[C@@H]1CCN(CCCCCC(=O)NCCCCCCCC(=O)NCCS(=O)(=O)O)C[C@@H]1OC [Example 23, 2-(8-(6-((3S,4R)-4-(4-amino-5-chloro-2-methoxybenzamido)-3-methoxypiperidin-1-yl)hexanamido)octanamido)ethane-1-sulfonic acid] | 56.5
13 | CO[C@H]1CN(CCCCCC(=O)NCCCCCCCC(=O)NC[C@H](O)[C@@H](O)[C@H](O)[C@H](O)CO)CC[C@H]1NC(=O)c1cc(Cl)c(N)c2c1OCC2 [Example 44, 4-amino-5-chloro-N-((3S,4R)-3-methoxy-1-(6-oxo-6-((8-oxo-8-(((2S,3R,4R,5R)-2,3,4,5,6-pentahydroxyhexyl)amino)octyl)amino)hexyl)piperidin-4-yl)-2,3-dihydrobenzofuran-7-carboxamide] | 3.1
14 | COc1cc(N)c(Cl)cc1C(=O)N[C@@H]1CCN(CCCCCC(=O)N(C)CCCCCCCC(=O)NC[C@H](O)[C@@H](O)[C@H](O)[C@H](O)CO)C[C@@H]1OC [Example 16, 4-amino-5-chloro-2-methoxy-N-((3S,4R)-3-methoxy-1-(6-(methyl(8-oxo-8-(((2S,3R,4R,5R)-2,3,4,5,6-pentahydroxyhexyl)amino)octyl)amino)-6-oxohexyl)piperidin-4-yl)benzamide] | 43.3
15 | Nc1c(Cl)cc(C(=O)NC2CCN(CCCCCC(=O)NC3CCN(CCCCCC(=O)NC[C@H](O)[C@@H](O)[C@H](O)[C@H](O)CO)CC3)CC2)c2c1CCO2 [Example 31, 4-amino-5-chloro-N-(1-(6-oxo-6-((1-(6-oxo-6-(((2S,3R,4R,5R)-2,3,4,5,6-pentahydroxyhexyl)amino)hexyl)piperidin-4-yl)amino)hexyl)piperidin-4-yl)-2,3-dihydrobenzofuran-7-carboxamide] | 6.1
16 | COc1cc(N)c(Cl)cc1C(=O)N[C@@H]1CCN(C(C)CCCCC(=O)NCCCCCCCC(=O)NC[C@H](O)[C@@H](O)[C@H](O)[C@H](O)CO)C[C@@H]1OC (stereo partly drawn) [Example 18, 4-amino-5-chloro-2-methoxy-N-((3S,4R)-3-methoxy-1-(7-oxo-7-((8-oxo-8-(((2S,3R,4R,5R)-2,3,4,5,6-pentahydroxyhexyl)amino)octyl)amino)heptan-2-yl)piperidin-4-yl)benzamide] | 150
17 | CO[C@H]1CN(CC2CCN(C(=O)CCCCCCCC(=O)NC[C@H](O)[C@@H](O)[C@H](O)[C@H](O)CO)CC2)CC[C@H]1NC(=O)c1cc(Cl)c(N)c2c1OCC2 [Example 41, 4-amino-5-chloro-N-((3S,4R)-3-methoxy-1-((1-(9-oxo-9-(((2S,3R,4R,5R)-2,3,4,5,6-pentahydroxyhexyl)amino)nonanoyl)piperidin-4-yl)methyl)piperidin-4-yl)-2,3-dihydrobenzofuran-7-carboxamide] | 1.2
18 | COc1cc(N)c(Cl)cc1C(=O)N[C@@H]1CCN(CCCCCC(=O)NCCCCCCCC(=O)N(CCP(=O)(O)O)C[C@H](O)[C@@H](O)[C@H](O)[C@H](O)CO)C[C@@H]1OC [Example 26, (2-(8-(6-((3S,4R)-4-(4-amino-5-chloro-2-methoxybenzamido)-3-methoxypiperidin-1-yl)hexanamido)-N-((2S,3R,4R,5R)-2,3,4,5,6-pentahydroxyhexyl)octanamido)ethyl)phosphonic acid] | 131
19 | CO[C@H]1CN(CC2CCN(C(=O)CCCCCC(=O)NC[C@H](O)[C@@H](O)[C@H](O)[C@H](O)CO)CC2)CC[C@H]1NC(=O)c1cc(Cl)c(N)c2c1OCC2 [Example 42, 4-amino-5-chloro-N-((3S,4R)-3-methoxy-1-((1-(7-oxo-7-(((2S,3R,4R,5R)-2,3,4,5,6-pentahydroxyhexyl)amino)heptanoyl)piperidin-4-yl)methyl)piperidin-4-yl)-2,3-dihydrobenzofuran-7-carboxamide] | 1.4

Source: patent US12653815B2, “Luminally-acting N-(piperidin-4-yl)benzamide derivatives” (Takeda Pharmaceutical Company Limited, priority 2020, dated 2026)
